# From ChEMBL document CHEMBL3272144, “Application of the Free-Wilson technique to structurally related series of homologues. Quantitative structure-activity relationship studies of narcotic analgetics” (1977)
# Species: Mus musculus
# Experiment: Analgesic activity in mouse by hot-plate method
# Type: functional
row,Structure (SMILES),log(1/C)
1,CN1CC[C@H]2CC1Cc1ccc(O)cc12 (stereo in doubt; 96),1.22
2,COc1ccc2c(c1)[C@@]1(C)CCN(CCc3ccccc3)C(C2)[C@@H]1O (mixture of isomers),1.58
3,CC[C@@H]1C2Cc3ccc(O)cc3[C@@]1(CC)CCN2C (stereo in doubt; 6),3.51
4,CN1CC[C@@]2(c3ccccc3)CC1Cc1ccccc12 (stereo in doubt; 44),1.77
5,C[C@H]1C2Cc3ccc(O)cc3[C@@]1(C)CCN2CCc1cccs1 (mixture of isomers),4.04
6,CN1CC[C@@]2(C)CC1Cc1ccccc12 (mixture of isomers),1.33
7,C[C@@]12CCN(CCc3ccccc3)C(Cc3ccc(O)cc31)[C@@H]2O (mixture of isomers),2.99
8,CC(=O)Oc1ccc2c(c1)[C@@]1(C)CCN(CCC(=O)c3ccccc3)C(C2)[C@@H]1C (mixture of isomers),2.49
9,CC[C@H]1C2Cc3ccc(OC)cc3[C@@]1(CC)CCN2C (stereo in doubt; 91),1.62
10,CN1CC[C@@]2(C)CC1Cc1ccc(O)cc12 (stereo in doubt; 98),1.04
11,C[C@@H]1C2Cc3ccc(O)cc3[C@@]1(c1ccccc1)CCN2C (stereo in doubt; 88),1.99
